In patent US12508237B2, “Pharmaceutical composition comprising 4-hexylresorcinol as active ingredient for prevention or treatment of bone disease” (KYUNGPOOK NATIONAL UNIVERSITY INDUSTRY-ACADEMIC COOPERATION …, priority 2019, dated 2025):

How the values were obtained:
osteoclasts [1] = test: osteoclast differentiation by TRAP staining; format: cell-based; set-up: dose or concentration left out as unconfirmed; details: mouse bone marrow cells with M-CSF and RANKL, 4 days, 4-HR
Protocol: Mouse bone marrow monocyte (BMM) cells were isolated from the femur and tibia in 8-week-old mice. Muscle was removed after the separation of the femur and tibia from the mice euthanized by cervical dislocation, both ends were cut out, and α-MEM was filtered with a syringe to separate bone marrow cells. After centrifuging the isolated bone marrow cells, red blood cell lysis solution was added to hemolyze red blood cells, and then culture was performed for a day in the α-MEM containing 10% (v/v) FBS, penicillin (100 units/ml), and streptomycin (100 units/ml) using the constant temperature and humidity incubator in the presence of 5% (v/v) CO2 at 37° C. Only suspending cells not adhering to the culture dish were collected, treated with 20 ng/ml of M-CSF, and cultured for 3 days to obtain bone marrow-derived monocyte/macrophage. In an attempt to differentiate macrophages into osteoclasts, 20 ng/ml of M-CSF and 30 ng/ml of RANKL were treated, followed by culture for 4 days. Media were replaced every 2 days while differentiation was induced.
Medullary mononuclear cells isolated from the femur and tibia of mice were treated with 20 ng/ml of M-CSF and reacted for a day. […]

[2] = system: animal model with osteoporosis; test: blood biochemical analysis of bone resorption and bone formation markers (CTX, ALP, RANKL) in animal model with osteoporosis; format: in vivo, mouse; details: 4-HR periodically applied to the skin
Protocol: To evaluate the effect of 4-hexylresorcinol (4-HR) on bone resorption and promoting bone formation, the levels of CTX, ALP, and RANKL in an animal model with osteoporosis were measured via blood biochemical analysis. CTX is used as a marker for evaluating the degree of bone resorption (bone destruction) in the blood, ALP is a marker that indicates the degree of bone formation secreted by osteoblasts, and RANKL is used as a marker that is secreted from osteoblasts and promotes differentiation of osteoclasts.

osteoclasts [3] = test: osteoclastic activity by Pit assay on bone slices; format: cell-based, mouse; details: differentiated osteoclasts on bone slices, treated with 4-HR for 2 days
Protocol: Monocytes were sterilized and inoculated on bone slices placed on a 96-well plate, followed by culture for 3 days in the presence of RANKL (30 ng/ml) and M-CSF (30 ng/ml). After 3 days, the differentiated osteoclasts were treated with 4-hexylresorcinol (4-HR), and a culture was performed for 2 days. After 2 days of culture, osteoclasts were removed and bone slices were reacted with horseradish peroxidase-wheat germ agglutinin (Sigma-Aldrich) and then stained with 3,3′-diaminobenzidine (Sigma-Aldrich). Stained cells were analyzed according to the manufacturer's method using a Java-based image analysis program (ImageJ).
To evaluate the effect of 4-hexylresorcinol (4-HR) on the differentiation and activity of osteoclasts, 4-hexylresorcinol (4-HR) was treated on osteoclasts, and cell differentiation and osteoclastic activity were checked by TRAP staining and PIT assay analysis.

[4] = system: osteoporosis (OVX) induced mice; test: micro-CT analysis of femur bone in ovariectomy (OVX) osteoporosis mouse model after 4-HR ointment application; format: in vivo; details: ointment containing 2% 4-HR applied to dorsal skin for 4 weeks, compared to osteoporosis (OVX) induced mice
Protocol: After separating the mouse femur and removing muscle, fixation was performed using 4% PFA at 4° C. for a day. The next day, washing was followed three times with PBS solution to be stored in PBS. The femur stored thereby was analyzed with a Skysan 1272 (Bruker, Massachusetts, USA) model by scanning, in units of 6 μm, the section from 1.6 mm to 2.3 mm below the growth plate. Using micro-CT, during the measurement of trabecular bone volume/tissue volume (BV/TV), trabecular thickness (Tb.Th), trabecular number (Tb.N), trabecular separation (Tb.Sp), and trabecular bone mineral density (BMD), bone volume/tissue volume (BV/TV) and bone mineral density (BMD) of cortical bone was measured as well.
To evaluate the effect of 4-hexylresorcinol (4-HR) on bone remodeling, the ointment containing 2% 4-HR was applied to the mouse dorsal skin for 4 weeks after induction of osteoporosis via ovariectomy (OVX) in a model with osteoporosis, and the change in bone volume was analyzed by micro-CT.

osteoblasts (MC3T3-E1) = test: osteoblast differentiation by alkaline phosphatase (ALP) and Alizarin red staining; format: cell-based, mouse; details: MC3T3-E1 cells, 4-HR 10^−9 M to 10^−6 M (ALP, 7 days) or 10^−9 M to 10^−4 M (Alizarin red, 14-21 days)
Protocol: MC3T3-E1 (mouse calvaria osteoblast cell line) cells were cultured in α-MEM containing 10% (v/v) FBS, penicillin (100 units/ml), and streptomycin (100 units/ml) using a constant temperature and humidity incubator in the presence of 5% (v/v) CO2 at 37° C. When the culture dish was filled with osteoblasts with 100% confluency, 50 μg/ml of ascorbic acid and 10 mM of β-glycerophosphate were treated to induce cell differentiation. During cell differentiation, the differentiation medium was replaced every 3 days.
MC3T3-E1 and bone marrow stem cells were inoculated into a 48-well multi-plate at 5×10^4 cells/well, and culture was performed for 7 days with treatment of 4-hexylresorcinol (4-HR) at a concentration of 10^−9 M to 10^−6 M while a differentiation induction medium was replaced every 2 days. After the culture, cells were washed with PBS three times, and a fixative containing 5 ml of citrate acid, 13 ml of acetone, and 1.6 ml of a formaldehyde solution was treated for 45 seconds. Then, the cells were washed twice with PBS, treated with an alkaline-dye mixture, and reacted at room temperature in the darkness for 30 minutes. After removing the solution, cells were washed several times with PBS and observed under a microscope. […]

With `CCCCCCc1ccc(O)cc1O` [4-hexylresorcinol (4-HR), 4-hexylbenzene-1,3-diol] the “differentiation of osteoclasts (TRAP staining)” value (osteoclasts [1]) was “inhibited”, the “level of ALP (bone formation marker in blood)” value [2] was “increased” and the “level of CTX (bone resorption marker in blood)” value [2] was “decreased”. For the same compound, the “osteoclastic activity (PIT assay)” value (osteoclasts [3]) was “inhibited”, the bone density [4] was “increased” and the bone volume [4] was “increased”. The trabecular number [4] was “increased”, the trabecular thickness [4] was “increased” and the “differentiation of osteoblasts (ALP and Alizarin red staining)” value (osteoblasts (MC3T3-E1)) was “differentiation was promoted”.
